Values after ≈ are worked out from the molar mass of the structure shown.
Legend:
[1] = Measurement of solubility in physiological saline; format: physicochemical; conditions: stirred 2 hours, filtered, HPLC
Procedure: The solubility of exemplary compounds of the present invention was measured.
The measurement was carried out using an internal standard method, and a 4-point calibration curve (4000 μM, 1000 μM, 250 μM, and 31.3 μM, or 1000 μM, 250 μM, 62.5 μM, and 7.8 μM) was prepared. A sample solution (100% DMSO) was lyophilized, and each solution was added. Then, the mixture was stirred for 2 hours, and the sample dissolved in the solution was filtered. Thereafter, the filtrate was measured by HPLC (HPLC). Physiological saline was used as a solution. Note that among the test compounds used, comparative compound 1 was the compound of Example 3-26 described in International publication No. WO06/090743 (phosphoric acid dibenzyl ester(R)-2-oxo-3-[1-oxo-3-(2-trifluoromethylphenyl)-1,2-dihydroisoquinolin-7-yl]-oxazolidin-5-ylmethyl ester). Further, the optical isomer of comparative compound 1, i.e., phosphoric acid dibenzyl ester(S)-2-oxo-3-[1-oxo-3-(2-trifluoromethylphenyl)-1,2-dihydroisoquinolin-7-yl]-oxazolidin-5-ylmethyl ester, was used as comparative compound 2. An active substance of the compound of the present invention, i.e., 7-((S)-5-hydroxymethyl-2-oxooxazolidin-3-yl)-3-(2-trifluoromethylphenyl)-2H-isoquinolin-1-one, was used as comparative compound 3. Another active substance of the compound of the present invention, i.e., 7-((R)-5-hydroxymethyl-2-oxooxazolidin-3-yl)-3-(2-trifluoromethylphenyl)-2H-isoquinolin-1-one, was used as comparative compound 4.

[2] = Measurement of conversion rate in human plasma; format: in vitro ADME; conditions: 37° C., 50 μM
Procedure: The conversion rate of exemplary compounds of the present invention in human plasma was measured. The measurement of conversion rate in human plasma was conducted using human plasma purchased from Rockland Immunochemicals, Inc. (Pennsylvania, the United States of America). Each compound was incubated at 37° C. for 6 hours in plasma at a concentration of 50 μM, subjected to deproteinization treatment, and then quantified by HPLC using an internal standard method. The conversion rate was calculated as a residual rate after 6 hours. Comparative compounds 1 and 2 described above were also tested as test compounds.

[3] = tested on: human colon cancer cell line HCT116; test: Measurement of antitumor effect in HCT116 tumor-bearing nude mice; format: in vivo, BALB/c nude mouse; conditions: tail vein, administered twice (day 0 and day 7), HCT116 subcutaneous xenograft, vs control group 14 days after start
Procedure: The antitumor effect of exemplary compounds of the present invention was measured.
The antitumor effect was determined using tumor-bearing mice prepared by subcutaneously implanting a human colon cancer cell line HCT116 obtained from American Type Culture Collection (Virginia, the United States of America) into flank of each BALB/c nude mouse purchased from Charles River, Japan. The purchased nude mice were quarantined for 1 week, and thereafter about 5×10^6 HCT116 cells were subcutaneously implanted into flank of each mouse. The mice were subjected to the experiment at the time when their tumor grew to a size of about 200 mm^3.
Each compound was dissolved in an administration solution, and the solution was administered to the tail vein at 0.1 mL per 10 g of body weight of each mouse. Administration was carried out twice in total; on the initiation day of administration and 7 days after the initiation day. The antitumor effect was calculated as tumor growth inhibition by comparing with tumor growth in the administration solution-administered control group 14 days after the initiation day of administration.

[4] = saline or isotonic, thermodynamic from solid

| SMILES | solubility at 2 h [1, 4] [µM] | Residual rate (after 6 hrs., %) [2] [%] | also measured |
| --- | --- | --- | --- |
| O=C1O[C@@H](COP(=O)(OCc2ccccc2)OCc2ccccc2)CN1c1ccc2cc(-c3ccccc3C(F)(F)F)[nH]c(=O)c2c1 [Comparative compound 1, phosphoric acid dibenzyl ester(R)-2-oxo-3-[1-oxo-3-(2-trifluoromethylphenyl)-1,2-dihydroisoquinolin-7-yl]-oxazolidin-5-ylmethyl ester, reference compound] | < 7.8 | 99.5 | remained in human plasma after 6 hours (in words) [2]: almost all |
| O=C1O[C@H](COP(=O)(OCc2ccccc2)OCc2ccccc2)CN1c1ccc2cc(-c3ccccc3C(F)(F)F)[nH]c(=O)c2c1 [Comparative compound 2, phosphoric acid dibenzyl ester(S)-2-oxo-3-[1-oxo-3-(2-trifluoromethylphenyl)-1,2-dihydroisoquinolin-7-yl]-oxazolidin-5-ylmethyl ester, reference compound] | < 7.8 | 95.5 |  |
| O=C1O[C@H](CO)CN1c1ccc2cc(-c3ccccc3C(F)(F)F)[nH]c(=O)c2c1 [Comparative compound 3, 7-((S)-5-hydroxymethyl-2-oxooxazolidin-3-yl)-3-(2-trifluoromethylphenyl)-2H-isoquinolin-1-one] | 179 (≈ 72.4 µg/mL) |  |  |
| O=C1O[C@@H](CO)CN1c1ccc2cc(-c3ccccc3C(F)(F)F)[nH]c(=O)c2c1 [Comparative compound 4, 7-((R)-5-hydroxymethyl-2-oxooxazolidin-3-yl)-3-(2-trifluoromethylphenyl)-2H-isoquinolin-1-one] | 193 (≈ 78 µg/mL) |  |  |
| O=C1O[C@H](COP(=O)(O)O)CN1c1ccc2cc(-c3ccccc3C(F)(F)F)[nH]c(=O)c2c1 [Example 1, Mono-{(S)-2-oxo-3-[1-oxo-3-(2-trifluoromethyl-phenyl)-1,2-dihydro-isoquinolin-7-yl]-oxazolidin-5-ylmethyl}-phosphoric acid] | 3530 (≈ 1710 µg/mL) | 35.4 |  |
| O=C1O[C@H](COP(=O)([O-])[O-])CN1c1ccc2cc(-c3ccccc3C(F)(F)F)[nH]c(=O)c2c1.[Na+].[Na+] [Example 2, Mono-{(S)-2-oxo-3-[1-oxo-3-(2-trifluoromethyl-phenyl)-1,2-dihydro-isoquinolin-7-yl]-oxazolidin-5-ylmethyl}-disodium phosphate] |  | 29.4 | solubility at 2 h [1]: 3527 µM; TGI on day 14 (%) ([3]; 60 mg/kg): 85%; remained in human plasma after 6 hours (in words) [2]: almost all |
| O=C1O[C@@H](COP(=O)(O)O)CN1c1ccc2cc(-c3ccccc3C(F)(F)F)[nH]c(=O)c2c1 [Example 6, Mono-{(R)-2-oxo-3-[1-oxo-3-(2-trifluoromethyl-phenyl)-1,2-dihydro-isoquinolin-7-yl]-oxazolidin-5-ylmethyl}-phosphoric acid] | > 4000 |  |  |
| O=C1O[C@@H](COP(=O)(O)O)CN1c1ccc2cc(-c3ccccc3C(F)(F)F)[nH]c(=O)c2c1 [Example 7, Mono-{(R)-2-oxo-3-[1-oxo-3-(2-trifluoromethyl-phenyl)-1,2-dihydro-isoquinolin-7-yl]-oxazolidin-5-ylmethyl}-disodium phosphate] |  | 33.4 | TGI on day 14 (%) ([3]; 80 mg/kg): 30% |

Reference: patent US8420668B2, “1-(2H)-isoquinolone derivative” (Chugai Seiyaku Kabushiki Kaisha, priority 2008, dated 2013)
